Here are results for one compound from patent US10130617B2, “Chemical compounds” (AstraZeneca AB, priority 2013, dated 2018).

For the experiment, the system named is HCC1428 LTED cells. The experiment in a line: HCC1428 Long Term Estrogen Deprived (HCC1428 LTED) Xenograft Efficacy Study. Type of experiment: in vivo, NSG mice. The conditions noted are these: 25 mg/kg once daily p.o., after 28 days of dosing. Here is the method: HCC1428 Long Term Estrogen Deprived (HCC1428 LTED) Xenograft Efficacy Study
After a suitable period of cell culture, HCC1428 LTED cells (1×10^6) were implanted subcutaneously in the hind flank of female immuno-compromised NSG mice (Jackson Labs, USA) that had undergone overectomy. Tumours were measured twice weekly and changes in tumour volume and growth inhibition were determined by bilateral Vernier calliper measurement (length×width) where length was taken to be the longest diameter across the tumour and width the corresponding perpendicular. Tumour volume was calculated using the formula (length×width)×√(length×width)×(π/6). Tumours were measured once weekly after cell implantation until the average size reached 150 mm^3 at which point the mice were placed into randomised test groups, each group containing 10 mice. Treatment with compounds began the day after (day 62 in this study) and once weekly tumour measurement continued. […] Another group of animals was dosed with vehicle p.o. to act as a control.

As for `C[C@@H]1Cc2c([nH]c3ccccc23)[C@@H](c2c(F)cc(/C=C/C(=O)O)cc2F)N1CC(C)(C)F` [Example 1, (E)-3-(3,5-Difluoro-4-((1R,3R)-2-(2-fluoro-2-methylpropyl)-3-methyl-2,3,4,9-tetrahydro-1H-pyrido[3,4-b]indol-1-yl)phenyl)acrylic acid], where the note is “geometric mean values, control grew by 220 mm^3”, the “decrease in tumour size” value was determined as 46 mm^3. The “inhibition of tumour growth” value (P<0.001 by unpaired t-test) was 121%.
